{"source": "patent US8999322B2", "about": "“Compositions and methods for modulating hemostasis” (The United States of America National Institutes of Health …, priority 2005, dated 2015)", "key": {"[1]": {"biological_target": "T1, IITAT (Homo sapiens, UniProt P00734, E366T/I364T/V365A)", "T1 construct": "made in house", "assay": "Rescue of IITAT cleavage at Arg-271 by DAPA (areas under mIIa progress curves)", "type": "biochemical", "settings": "DAPA 0-300 μM; 5.4 μM IITAT, 0.8 nM prothrombinase; read-out: DAPA concentration for half-maximal effect on rescue of second half-reaction in IITAT cleavage", "description": "Reaction mixtures prepared in assay buffer and maintained at 25° C., contained 5.4 μM IIWT, IITAT, or IIQ155,Q284, 20 μM PCPS, 28 nM Va, and indicated concentrations of DAPA. Cleavage was initiated by the addition of 0.8 nM Xa and samples (15 μl), withdrawn at the indicated times, were quenched by mixing with an equal volume of 2 NuPAGE LDS sample buffer (Invitrogen) containing 50 mM EDTA. Quenched samples were treated with 71 mM DTT, heated at 89° C. for 5 min, and subjected to electrophoresis (4.2 μg protein per lane) by using NuPAGE 4-12% gels and Mes running buffer (Invitrogen). Protein bands visualized by staining with Coomassie brilliant blue R-250 were imaged and analyzed by quantitative densitometry by using procedures described in detail in refs. 4 and 15. Analysis of the cleavage of FPR-IIQ320 and NaSCN-treated IIQ320 was performed as described above except that reaction mixtures contained 5.8 μM prothrombin variant, 50 μM PCPS, 60 nM Va, 40 μM DAPA, and 1 nM Xa.\nEffects of DAPA were assessed by integrating areas under the progress curves for mIIa formation and its disappearance for the different prothrombin variants (FIG. 5). Normalized areas obtained in the activation of IIWT or IIQ155,Q284 were identical and were independent of DAPA varied between 0 and 300 μM for IIQ155,Q284 or 20 and 300 μM for IIWT. […]"}, "[2]": {"biological_target": "T2, IIaWT (Homo sapiens, UniProt P00734)", "T2 construct": "yielding mIIa as the sole intermediate, followed by cleavage at Arg-271 to produce IIa", "assay": "Binding of DAPA to thrombin variants (fluorescence)", "settings": "fluorescence studies, data not shown", "description": "Front face fluorescence measurements were performed in a plate reader (SpectraMax Gemini, Molecular Devices) by using black polystyrene plates (no. 3650, Corning). Reaction mixtures (100 μl) prepared in assay buffer contained increasing concentrations of DAPA (24 concentrations, 0-100 μM) with no addition, 0.5 μM IIa, or 0.5 μM IIaTAT. […] Subtraction of the intensity measured with DAPA alone yielded the fluorescence change associated with the binding of DAPA to Ha or IIaTAT. Fluorescence data were analyzed as described in ref 7 to infer the equilibrium dissociation constant."}, "[3]": {"biological_target": "T3, mIIaTAT (Homo sapiens, UniProt P00734, E366T/I364T/V365A)", "T3 construct": "made in house; host or cells: IITAT from HEK293 cells, cleaved in the reaction by prothrombinase", "assay": "DAPA binding to zymogen-like mIIaTAT (interpretation of rescue data)", "settings": "possible interpretation of rescue findings", "source_text": "Ligands that bind with high affinity to the proteinase are established to enhance the ability of the zymogen to adopt a proteinase-like configuration (13, 20, 23). Our findings are consistent with two possible interpretations. […] Alternatively, DAPA could act by selectively binding and favoring the proteinase in an equilibrium between zymogen-like and proteinase-like forms of mIIaTAT in which the zymogen-like state is highly favored."}, "[4]": {"biological_target": "IIa", "settings": "read-out: Kd of DAPA for IIa; cited from earlier work"}, "[5]": {"biological_target": "mIIa", "settings": "read-out: Kd of DAPA for mIIa; cited from earlier work"}}}
{"smiles": "CCC1CCN(C(=O)C(CCCNC(=N)N)NS(=O)(=O)c2cccc3c(N(C)C)cccc23)CC1", "note": "[DAPA, dansyl-L-arginine N-(3-ethyl-1,5-pentanediyl)amide]", "values": [{"measurement": "EC50", "setting": "[1]", "value": "~20", "unit": "µM"}, {"measurement": "equilibrium dissociation constant of DAPA for IIaWT", "setting": "[2]", "value": "nanomolar"}, {"measurement": "Kd", "setting": "[3]", "value": 30, "unit": "µM"}, {"measurement": "Kd", "setting": "[4]", "value": "~0.001", "unit": "µM"}, {"measurement": "Kd", "setting": "[5]", "value": "~0.001", "unit": "µM"}]}
